In brackets after ≈: the same amount, converted by molar mass.
System: Ceriodaphnia
Conditions: in vivo; for LC50 value: ceriodaphnia, 48 h

Structure (SMILES)	LC50 value [ng/mL]	Chlorpyrifos TUs [TUs]	TUs by ELISA [TUs]	actual toxicity due to the chemical (TUs)	Diazinon TUs [TUs]	Actual Sample TUs / Sample TUs after treatment	Residual TUs (after PB Treatment) [TUs]
CCOP(=S)(OCC)Oc1nc(Cl)c(Cl)cc1Cl [Chlorpyrifos, chlorpyrifos]	0.08 (≈ 0.228 nM)	2.2	3.2	0.5			
CCOP(=S)(OCC)Oc1cc(C)nc(C(C)C)n1 [Diazinon, diazinon]	0.38 (≈ 1.25 nM)		1.9	0.9	4.5		
CCCCOCCOCCOCc1cc2c(cc1CCC)OCO2 [PB, piperonyl butoxide]						~ 1.0 TUs	1.0

Reference: patent publication US6017715A (priority 1996, dated 2000)
